pIC50: −log10 of the molar value.
Tested on: 633275-114-R-J1-PDC complex spheroids, viability
Assay: Anticancer human tumor 633275-114-R-J1-PDC patient-derived endometrial adenocarcinoma cell line growth inhibition [GQUAD]
Conditions: for pIC50: curve of first compound; for viability, T/C: stronger effect = lower value
Procedure, shortened: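 Tumor cells were grown as complex spheroids with HUVEC endothelial cells and mesenchymal stem cells as stroma. G-quadruplex stabilizers were combined with targeted agents over half-log dilutions from near the clinical Cmax, or from 10 microM.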

[1] = second compound 0.0316 µM, first compound 0.000999 µM
[2] = second compound 0.0316 µM, first compound 0.00316 µM
[3] = second compound 0.0316 µM, first compound 0.00999 µM
[4] = second compound 0.0316 µM, first compound 0.0316 µM
[5] = second compound 0.0316 µM, first compound 0.0999 µM
[6] = second compound 0.0316 µM, first compound 0.316 µM
[7] = second compound 0.1 µM, first compound 0.000999 µM
[8] = second compound 0.1 µM, first compound 0.00316 µM
[9] = second compound 0.1 µM, first compound 0.00999 µM
[10] = second compound 0.1 µM, first compound 0.0316 µM
[11] = second compound 0.1 µM, first compound 0.0999 µM
[12] = second compound 0.1 µM, first compound 0.316 µM
[13] = second compound 0.316 µM, first compound 0.000999 µM
[14] = second compound 0.316 µM, first compound 0.00316 µM
[15] = second compound 0.316 µM, first compound 0.00999 µM
[16] = second compound 0.316 µM, first compound 0.0316 µM
[17] = second compound 0.316 µM, first compound 0.0999 µM
[18] = second compound 0.316 µM, first compound 0.316 µM
[19] = second compound 1 µM, first compound 0.000999 µM
[20] = second compound 1 µM, first compound 0.00316 µM
[21] = second compound 1 µM, first compound 0.00999 µM
[22] = second compound 1 µM, first compound 0.0316 µM
[23] = second compound 1 µM, first compound 0.0999 µM
[24] = second compound 1 µM, first compound 0.316 µM
[25] = second compound 3.16 µM, first compound 0.000999 µM
[26] = second compound 3.16 µM, first compound 0.00316 µM
[27] = second compound 3.16 µM, first compound 0.00999 µM
[28] = second compound 3.16 µM, first compound 0.0316 µM
[29] = second compound 3.16 µM, first compound 0.0999 µM
[30] = second compound 3.16 µM, first compound 0.316 µM
[31] = second compound 10 µM, first compound 0.000999 µM
[32] = second compound 10 µM, first compound 0.00316 µM
[33] = second compound 10 µM, first compound 0.00999 µM
[34] = second compound 10 µM, first compound 0.0316 µM
[35] = second compound 10 µM, first compound 0.0999 µM
[36] = second compound 10 µM, first compound 0.316 µM
[37] = second compound 0.0316 µM, first compound 0.1 µM
[38] = second compound 0.0316 µM, first compound 1 µM
[39] = second compound 0.0316 µM, first compound 3.16 µM
[40] = second compound 0.0316 µM, first compound 10 µM
[41] = second compound 0.1 µM, first compound 0.1 µM
[42] = second compound 0.1 µM, first compound 1 µM
[43] = second compound 0.1 µM, first compound 3.16 µM
[44] = second compound 0.1 µM, first compound 10 µM
[45] = second compound 0.316 µM, first compound 0.1 µM
[46] = second compound 0.316 µM, first compound 1 µM
[47] = second compound 0.316 µM, first compound 3.16 µM
[48] = second compound 0.316 µM, first compound 10 µM
[49] = second compound 1 µM, first compound 0.1 µM
[50] = second compound 1 µM, first compound 1 µM
[51] = second compound 1 µM, first compound 3.16 µM
[52] = second compound 1 µM, first compound 10 µM
[53] = second compound 3.16 µM, first compound 0.1 µM
[54] = second compound 3.16 µM, first compound 1 µM
[55] = second compound 3.16 µM, first compound 3.16 µM
[56] = second compound 3.16 µM, first compound 10 µM
[57] = second compound 10 µM, first compound 0.1 µM
[58] = second compound 10 µM, first compound 1 µM
[59] = second compound 10 µM, first compound 3.16 µM
[60] = second compound 10 µM, first compound 10 µM
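Note: spheroids exposed to the agents for seven days.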
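Throughout, for viability, T/C: percent of DMSO vehicle control viability which is 100%.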

Structure (SMILES): CCc1c2c(nc3ccc(O)cc13)-c1cc3c(c(=O)n1C2)COC(=O)[C@]3(O)CC + CN(C)c1ccc(Nc2c3ccc(NC(=O)CCN4CCCC4)cc3nc3cc(NC(=O)CCN4CCCC4)ccc23)cc1
- pIC50 (second compound 0.0316 µM): 8.53
- pIC50 (second compound 0.1 µM): 8.57
- pIC50 (second compound 0.316 µM): 8.48
- pIC50 (second compound 1 µM): 8.56
- pIC50 (second compound 3.16 µM): 8.70
- pIC50 (second compound 10 µM): > 9.00
- viability, T/C [1]: 82.3%
- viability, T/C [2]: 46.1%
- viability, T/C [3]: 34.6%
- viability, T/C [4]: 35.3%
- viability, T/C [5]: 26.1%
- viability, T/C [6]: 25.2%
- viability, T/C [7]: 77.6%
- viability, T/C [8]: 44.2%
- viability, T/C [9]: 36.1%
- viability, T/C [10]: 32%
- viability, T/C [11]: 30.2%
- viability, T/C [12]: 25.6%
- viability, T/C [13]: 73%
- viability, T/C [14]: 48.2%
- viability, T/C [15]: 38.1%
- viability, T/C [16]: 35.3%
- viability, T/C [17]: 29.4%
- viability, T/C [18]: 23.9%
- viability, T/C [19]: 68.4%
- viability, T/C [20]: 43.1%
- viability, T/C [21]: 40.3%
- viability, T/C [22]: 29.3%
- viability, T/C [23]: 23.9%
- viability, T/C [24]: 21.6%
- viability, T/C [25]: 60.8%
- viability, T/C [26]: 41.8%
- viability, T/C [27]: 34.9%
- viability, T/C [28]: 28.1%
- viability, T/C [29]: 23.5%
- viability, T/C [30]: 22.6%
- viability, T/C [31]: 31%
- viability, T/C [32]: 16%
- viability, T/C [33]: 15.7%
- viability, T/C [34]: 13.9%
- viability, T/C [35]: 15.6%
- viability, T/C [36]: 11.5%

Structure (SMILES): CC[C@@]1(O)C(=O)OCc2c1cc1n(c2=O)Cc2cc3c(CN(C)C)c(O)ccc3nc2-1 + Cc1cnc(CNC(=O)c2c(=O)c3ccc(N4CCCN(C)CC4)nc3n3c2sc2ccccc23)cn1
- pIC50 (second compound 0.0316 µM): 7.48
- pIC50 (second compound 0.1 µM): 8.90
- pIC50 (second compound 0.316 µM): 8.78
- pIC50 (second compound 1 µM): > 9.00
- pIC50 (second compound 3.16 µM): > 9.00
- pIC50 (second compound 10 µM): > 9.00
- viability, T/C [1]: 63.9%
- viability, T/C [2]: 62.7%
- viability, T/C [3]: 53.8%
- viability, T/C [4]: 54.5%
- viability, T/C [5]: 38.4%
- viability, T/C [6]: 32.8%
- viability, T/C [7]: 50.7%
- viability, T/C [8]: 47.6%
- viability, T/C [9]: 47.5%
- viability, T/C [10]: 42.6%
- viability, T/C [11]: 41%
- viability, T/C [12]: 36.5%
- viability, T/C [13]: 49.7%
- viability, T/C [14]: 49.1%
- viability, T/C [15]: 48.5%
- viability, T/C [16]: 40.1%
- viability, T/C [17]: 34.7%
- viability, T/C [18]: 33.4%
- viability, T/C [19]: 40%
- viability, T/C [20]: 40.6%
- viability, T/C [21]: 39.1%
- viability, T/C [22]: 40.5%
- viability, T/C [23]: 39.9%
- viability, T/C [24]: 35.2%
- viability, T/C [25]: 38.4%
- viability, T/C [26]: 37.9%
- viability, T/C [27]: 37.7%
- viability, T/C [28]: 33.1%
- viability, T/C [29]: 35.9%
- viability, T/C [30]: 29.9%
- viability, T/C [31]: 31.7%
- viability, T/C [32]: 35.8%
- viability, T/C [33]: 29.8%
- viability, T/C [34]: 31.9%
- viability, T/C [35]: 32.7%
- viability, T/C [36]: 28.4%

Structure (SMILES): CC(C)n1c(=O)n(C)c2cnc3cc(F)c(-c4ccc(OCCCN5CCCCC5)nc4)cc3c21 + Cc1[nH]c2ccc(F)cc2c1-c1nc2c3cccnc3c3ncccc3c2[nH]1
- pIC50 (second compound 0.0316 µM): < 5.00
- pIC50 (second compound 0.1 µM): < 5.00
- pIC50 (second compound 0.316 µM): < 5.00
- pIC50 (second compound 1 µM): < 5.00
- pIC50 (second compound 3.16 µM): < 5.00
- pIC50 (second compound 10 µM): < 5.00
- viability, T/C [4]: 109%
- viability, T/C [37]: 105%
- viability, T/C [6]: 109%
- viability, T/C [38]: 100%
- viability, T/C [39]: 95.3%
- viability, T/C [40]: 68.3%
- viability, T/C [10]: 109%
- viability, T/C [41]: 105%
- viability, T/C [12]: 108%
- viability, T/C [42]: 101%
- viability, T/C [43]: 97.8%
- viability, T/C [44]: 70.5%
- viability, T/C [16]: 106%
- viability, T/C [45]: 105%
- viability, T/C [18]: 99.8%
- viability, T/C [46]: 99.2%
- viability, T/C [47]: 99.9%
- viability, T/C [48]: 71.2%
- viability, T/C [22]: 106%
- viability, T/C [49]: 98.2%
- viability, T/C [24]: 103%
- viability, T/C [50]: 90.9%
- viability, T/C [51]: 98.7%
- viability, T/C [52]: 70.7%
- viability, T/C [28]: 79.8%
- viability, T/C [53]: 76.3%
- viability, T/C [30]: 76.2%
- viability, T/C [54]: 72.2%
- viability, T/C [55]: 68.9%
- viability, T/C [56]: 55.1%
- viability, T/C [34]: 76.4%
- viability, T/C [57]: 74.4%
- viability, T/C [36]: 73.9%
- viability, T/C [58]: 74.1%
- viability, T/C [59]: 75%
- viability, T/C [60]: 55.4%

Structure (SMILES): C#Cc1c(F)ccc2cc(O)cc(-c3ncc4c(N5CC6CCC(C5)N6)nc(OCC56CCCN5CC(F)C6)nc4c3F)c12 (stereo not drawn) + Cc1cnc(CNC(=O)c2c(=O)c3ccc(N4CCCN(C)CC4)nc3n3c2sc2ccccc23)cn1
- pIC50 (second compound 0.0316 µM): 5.41
- pIC50 (second compound 0.1 µM): 6.80
- pIC50 (second compound 0.316 µM): > 7.50
- pIC50 (second compound 1 µM): > 7.50
- pIC50 (second compound 3.16 µM): > 7.50
- pIC50 (second compound 10 µM): > 7.50
- viability, T/C [4]: 68.9%
- viability, T/C [37]: 72.5%
- viability, T/C [6]: 65.2%
- viability, T/C [38]: 58.7%
- viability, T/C [39]: 47.1%
- viability, T/C [40]: 45.6%
- viability, T/C [10]: 52.3%
- viability, T/C [41]: 49.7%
- viability, T/C [12]: 52.1%
- viability, T/C [42]: 44.7%
- viability, T/C [43]: 39.8%
- viability, T/C [44]: 38.9%
- viability, T/C [16]: 47.1%
- viability, T/C [45]: 49.8%
- viability, T/C [18]: 43.7%
- viability, T/C [46]: 36.4%
- viability, T/C [47]: 37.2%
- viability, T/C [48]: 26.8%
- viability, T/C [22]: 41.7%
- viability, T/C [49]: 42.1%
- viability, T/C [24]: 42.1%
- viability, T/C [50]: 36.3%
- viability, T/C [51]: 30.9%
- viability, T/C [52]: 26.8%
- viability, T/C [28]: 38.4%
- viability, T/C [53]: 36.2%
- viability, T/C [30]: 34.4%
- viability, T/C [54]: 31.5%
- viability, T/C [55]: 27.7%
- viability, T/C [56]: 24.3%
- viability, T/C [34]: 31.3%
- viability, T/C [57]: 32.9%
- viability, T/C [36]: 26.5%
- viability, T/C [58]: 27.2%
- viability, T/C [59]: 23.7%
- viability, T/C [60]: 23.1%

— PubChem BioAssay AID2060505 (Molecular Pharmacology Branch, DTP, NCI, 2025)
